Test results: patent publication US20260076988A1 (The Cleveland Clinic Foundation, priority 2019, published 2026)
Entries after “also recorded” stand apart in the source; their conditions may differ.

Key:
[1] = tested on: dCTP, dTTP and pyrimidine metabolism enzymes; test: AML cells: nucleotide levels (LCMS/MS) and enzyme expression (QRT-PCR, Western blot); assay type: cell-based
Method: A) Experiment schema. Vehicle, natural deoxycytidine (dC) 0.5 uM, natural cytidine (C) 5 uM, Dec 0.5 uM, or 5Aza 5 uM were added once to AML cells at 0 hours. B) Cell counts. By automated counter. Means±SD for 3 independent biological replicates for each cell line. C) Dec and 5Aza have opposite effects on dCTP levels. Measured by LCMS/MS 24 hrs after addition of Dec or 5Aza. Analyses of 2 or more independent nucleotide extractions from 3 different AML cells lines. Means±SD; p-values paired t-test, 1-sided. D) Gene expression 72 hours after Dec or 5Aza. Gene expression by QRT-PCR, relative to average expression in vehicle-treated controls. Means±SD for 3 independent biological replicates in each of 3 AML cell lines; p-values unpaired t-test vs vehicle, 2-sided. E) Western blot 72 hours after Dec or 5Aza. AML cells THP1, OCI-AML3 and K562. Western blots were reproduced in three independent biological replicates.
C) Off-target pathways of Dec and 5Aza. D) Effects of Dec and 5Aza on RRM2A, RRM2B and CTPS1 protein levels. Western blots 72 hours after addition of a single dose of Dec 0.25 μM or 5Aza 2.5 uM. Western blots were reproduced in biological replicates.

[2] = tested on: F1339 p53-null SCLC cells; test: F1339 SCLC cells in vitro: proliferation, apoptosis, differentiation; assay type: cell-based, murine
Method: FIG. 2. […] F1339 p53-null cancer cells were seeded at D0 and treated with DMSO, deoxycytidine (DC, 0.5 μM), cytidine (CY, 5 μM), Dec (0.5 μM) and 5Aza (5 μM). […] Cell counts by automated counter, mean±SD. […] Gene expression by Q-PCR, median±interquartile range (IQR) (3 biological replicates), *p<0.05, **p<0.01. 2-sided Mann-Whitney test. […] Western blot.

DNMT1 = test: Serial patient bone marrow biopsies, DNMT1 immunohistochemistry; assay type: in vivo, human
Source text: (§1) Serial bone marrow biopsies from the same patient were cut onto the same slide, stained for DNMT1, and the number of DNMT1-positive nuclei was quantified objectively using ImageIQ software in 13 patients and positive/negative controls (tissue blocks of HCT116 wild-type and DNMT1-knockout cells respectively). D=days of therapy. Pre-Rx=pre-treatment; HI=hematologic improvement; CR=complete remission; SD=stable disease; Rel.=relapse. Mean±SD of ×3 image segments (cellular regions) per sample; p-value paired t-test, 2-sided. C) Expression of key pyrimidine metabolism enzymes at relapse/progression on Dec. […] Bone marrow cells aspirated pre-treatment and at relapse/progression on Dec (13 patients, median duration of therapy 175 days, range 97-922) or 5Aza (14 patients, median duration of therapy 433 days, range 61-1155) were analyzed by QRT-PCR. Mean±SD technical replicates×3. Paired t-test, 2-sided. D) Expression by Western blot of DNMT1 and key pyrimidine metabolism enzymes in Dec-resistant AML cells (THP1, K562, OCI-AML3 and MOLM13), and in parental THP1 AML cells treated with vehicle, Dec or 5-azacytidine (5Aza). Western blots.
Study approvals. Bone marrow samples for research were obtained from patients with AML (Acute myeloid leukemia) with written informed consent on a study protocol approved by the Cleveland Clinic Institutional Review Board (Cleveland, Ohio). Murine experiments were approved by the Cleveland Clinic Institutional Animal Care and Use Committee (Cleveland, Ohio). Sources of cell lines and animals. […] DNMT1 Immuno-detection and quantitation: Immunohistochemistry (IHC) was performed on decalcified and formalin-fixed paraffin embedded bone marrow biopsy sections (4 μm) and on positive and negative controls (parental and DNMT1-KO HCT116 cells). […] Nuclei positive for DNMT1 were identified and quantified in high resolution, large field-of-view images per ImageIQ algorithms (Image IQ Inc., Cleveland, OH) after segmentation of images and subtraction of bone as has been previously described^4.

DCK, UCK2, CDA and CAD = test: Patients' bone marrow enzyme expression pre-treatment vs relapse, QRT-PCR; assay type: in vivo, human; conditions: MDS patients' bone marrow
Source text: as §1
DNA isolation, reverse transcription (RT) and real-time PCR. As previously described^59. Primer sequences were:
CAD increased an average of ˜8-fold at relapse on either pro-drug, but not in all patients (FIG. 23C). The proliferation marker MKI67 increased at relapse in almost all the patients, consistent with active progression of disease (FIG. 23C).

**Q.** Nc1ncn([C@@H]2O[C@H](CO)[C@@H](O)[C@H]2O)c(=O)n1 [5-azacytidine] was tested. Which DNMT1 protein [1] did it give?
**A.** depleted DNMT1

**Q.** What about the RRM1 protein [1] of the same compound?
**A.** decreased levels of the ribonucleotide reductase sub-unit RRM1

**Q.** And the TYMS protein [1]?
**A.** downregulated

**Q.** What about the dCTP amount ([1]; 24 hour time-point) of the same compound?
**A.** significantly decreased

**Q.** And the dTTP amount ([1]; 24 hour time-point)?
**A.** decreased by both pro-drugs, but not to statistical significance

**Q.** And the “CDA mRNA and protein expression” value ([1]; 72 hour time-point)?
**A.** significantly increased

**Q.** And the “DCK mRNA and protein expression” value ([1]; 72 hour time-point)?
**A.** significantly increased

**Q.** And the “phosphorylation of CAD at serine 1856” value ([1]; 72 hour time-point)?
**A.** decrease phosphorylation of CAD at serine 1856

**Q.** What about the “total CAD or CTPS1 levels” value ([1]; 72 hour time-point) of the same compound?
**A.** Neither pro-drug changed total CAD

**Q.** And the “cell membrane Annexin-V staining (apoptosis-induction)” value ([2]; 24 hours after initiation of drug exposure)?
**A.** unaltered cell membrane Annexin-V staining

**Q.** And the “morphologic changes of differentiation” value ([2]; Giemsa-stained cytospins Day 5)?
**A.** induced morphologic changes in the cells consistent with differentiation induction

**Q.** What about the Myc protein ([2]; Western blot Day 5) of the same compound?
**A.** decreased Myc protein

**Q.** What about the p27/CDKN1B protein ([2]; Western blot Day 5) of the same compound?
**A.** increased p27/CDKN1B protein

**Q.** And the F1339 proliferation ([2]; decitabine 0.5 μM, 5-azacytidine 5 μM, cytarabine 0.5 μM)?
**A.** significantly decreased F1339 proliferation; also recorded: did significantly impede the SCLC cell proliferation

**Q.** And the “DNMT1 protein at time-of-relapse on-therapy” value (DNMT1)?
**A.** rebounded to levels comparable to pre-treatment levels

**Q.** And the “decrease of DNMT1 protein at time-of-response compared to pre-treatment” value (DNMT1; 13 patients)?
**A.** ~50%

**Q.** And the “decrease of CDA expression at relapse” value (DCK, UCK2, CDA and CAD)?
**A.** ~50%

**Q.** What about the “decrease of UCK2 expression at relapse” value (DCK, UCK2, CDA and CAD) of the same compound?
**A.** ~50%

**Q.** What about the “increase of DCK expression at relapse” value (DCK, UCK2, CDA and CAD) of the same compound?
**A.** ~8 fold

**Q.** What about the “average increase of CAD expression at relapse” value (DCK, UCK2, CDA and CAD; not in all patients) of the same compound?
**A.** ~8 fold
